# Experimental data: PubChem BioAssay (NCI)
#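 Following 48 hours of exposure in 96-well plates, responses at five concentrations were used to interpolate endpoints linearly. GI50: concentration for 50% inhibition of growth. TGI marks complete inhibition of growth.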
# System: NCI-H226 lung
# Assay: inhibition of tumour cell growth, NCI panel, 48 h
SMILES,GI50 [µM],TGI [µM]
Cc1nnc(Nc2ccc(NC(=O)Nc3ccc(Cl)cc3)cc2)c2ccccc12,3.61,15.9
CC(=O)ON1CCCC(P(=O)(OCCSC(=O)C(C)(C)C)OCCSC(=O)C(C)(C)C)C1=O (stereo not given),2.27,26.4
C=CCC1(c2ccc(OC)cc2)C=CC(=O)CC1 (stereo not given),,> 100
COC(=O)[C@]12CC[C@@H](C)[C@H](C)[C@@H]1C1=CC[C@@H]3[C@@]4(C)C[C@@H](O)[C@H](O)[C@@](C)(CO)C4=CC[C@@]3(C)[C@]1(C)CC2,20.1,40.4
COc1ccc(C(=O)Nc2ccc(O)c(=O)cc2)cc1,,> 100
Cc1nc(N)sc1N=Nc1ccccc1Br,,68.2
NS(=O)(=O)c1ccc(N=Nc2c(O)c(C(=O)O)cc3ccccc23)cc1,,> 100
Cc1c(N(C)C)ccc2c(=O)c3cccc(CC(=O)O)c3oc12,,> 100
C/C(CC(=O)Nc1ccc(C)c(C)c1)=N\N(c1ccccc1)c1ccccc1,,> 100
COC(=O)/C(=N\NC(N)=S)C(C(=O)OC)C(=O)C(=O)Nc1ccc(C)cc1 (stereo not given),,> 100
CC(NCCC(c1ccccc1)c1ccccc1)c1ccccc1 (stereo not given),2.78,13.8
C/C(N=NC(=S)N1CC2CCC(CC2)C1)=C1\C=CC=CN1O,,21.7
O=C(Nc1ccc(Br)cc1F)c1cc(Cl)ccc1O,1.2,4.57
S=c1[nH]c(=S)c2cc3ccccc3nc2[nH]1,> 100,> 100
CCC[CH2][Sn]([CH2]CCC)([O]C(=O)c1ccc(OC)c(OC)c1OC)[O][Sn]([CH2]CCC)([CH2]CCC)[O]C(=O)c1ccc(OC)c(OC)c1OC,0.33,0.89
CN1CCC(=O)/C(=C/c2ccccc2)C1,,32.2

# System: NCI-H23 lung
# Assay: inhibition of tumour cell growth, NCI panel, 48 h
SMILES,GI50 [µM],TGI [µM]
Cc1nnc(Nc2ccc(NC(=O)Nc3ccc(Cl)cc3)cc2)c2ccccc12,2.38,6.31
CC(=O)ON1CCCC(P(=O)(OCCSC(=O)C(C)(C)C)OCCSC(=O)C(C)(C)C)C1=O (stereo not given),3.3,28.5
C=CCC1(c2ccc(OC)cc2)C=CC(=O)CC1 (stereo not given),,> 100
COC(=O)[C@]12CC[C@@H](C)[C@H](C)[C@@H]1C1=CC[C@@H]3[C@@]4(C)C[C@@H](O)[C@H](O)[C@@](C)(CO)C4=CC[C@@]3(C)[C@]1(C)CC2,16.2,33.6
COc1ccc(C(=O)Nc2ccc(O)c(=O)cc2)cc1,,> 100
Cc1nc(N)sc1N=Nc1ccccc1Br,,56.3
NS(=O)(=O)c1ccc(N=Nc2c(O)c(C(=O)O)cc3ccccc23)cc1,,> 100
Cc1c(N(C)C)ccc2c(=O)c3cccc(CC(=O)O)c3oc12,,> 100
C/C(CC(=O)Nc1ccc(C)c(C)c1)=N\N(c1ccccc1)c1ccccc1,,> 100
COC(=O)/C(=N\NC(N)=S)C(C(=O)OC)C(=O)C(=O)Nc1ccc(C)cc1 (stereo not given),,> 100
CC(NCCC(c1ccccc1)c1ccccc1)c1ccccc1 (stereo not given),2.03,7.81
C/C(N=NC(=S)N1CC2CCC(CC2)C1)=C1\C=CC=CN1O,,> 100
O=C(Nc1ccc(Br)cc1F)c1cc(Cl)ccc1O,0.492,5.14
S=c1[nH]c(=S)c2cc3ccccc3nc2[nH]1,35,> 100
CCC[CH2][Sn]([CH2]CCC)([O]C(=O)c1ccc(OC)c(OC)c1OC)[O][Sn]([CH2]CCC)([CH2]CCC)[O]C(=O)c1ccc(OC)c(OC)c1OC,0.142,0.535
CN1CCC(=O)/C(=C/c2ccccc2)C1,,36.1

# System: NCI-H522 lung
# Assay: inhibition of tumour cell growth, NCI panel, 48 h
SMILES,GI50 [µM],TGI [µM]
Cc1nnc(Nc2ccc(NC(=O)Nc3ccc(Cl)cc3)cc2)c2ccccc12,1.84,3.88
CC(=O)ON1CCCC(P(=O)(OCCSC(=O)C(C)(C)C)OCCSC(=O)C(C)(C)C)C1=O (stereo not given),0.659,20.9
C=CCC1(c2ccc(OC)cc2)C=CC(=O)CC1 (stereo not given),,> 100
COC(=O)[C@]12CC[C@@H](C)[C@H](C)[C@@H]1C1=CC[C@@H]3[C@@]4(C)C[C@@H](O)[C@H](O)[C@@](C)(CO)C4=CC[C@@]3(C)[C@]1(C)CC2,16.2,33.6
COc1ccc(C(=O)Nc2ccc(O)c(=O)cc2)cc1,,63.1
Cc1nc(N)sc1N=Nc1ccccc1Br,,30.3
NS(=O)(=O)c1ccc(N=Nc2c(O)c(C(=O)O)cc3ccccc23)cc1,,> 100
Cc1c(N(C)C)ccc2c(=O)c3cccc(CC(=O)O)c3oc12,,> 100
C/C(CC(=O)Nc1ccc(C)c(C)c1)=N\N(c1ccccc1)c1ccccc1,,29.7
COC(=O)/C(=N\NC(N)=S)C(C(=O)OC)C(=O)C(=O)Nc1ccc(C)cc1 (stereo not given),,> 100
CC(NCCC(c1ccccc1)c1ccccc1)c1ccccc1 (stereo not given),1.81,3.48
C/C(N=NC(=S)N1CC2CCC(CC2)C1)=C1\C=CC=CN1O,,80.3
O=C(Nc1ccc(Br)cc1F)c1cc(Cl)ccc1O,0.361,4.34
S=c1[nH]c(=S)c2cc3ccccc3nc2[nH]1,20.5,51.7
CCC[CH2][Sn]([CH2]CCC)([O]C(=O)c1ccc(OC)c(OC)c1OC)[O][Sn]([CH2]CCC)([CH2]CCC)[O]C(=O)c1ccc(OC)c(OC)c1OC,< 0.0108,0.0392
CN1CCC(=O)/C(=C/c2ccccc2)C1,,33.6

# System: OVCAR-8 ovarian
# Assay: inhibition of tumour cell growth, NCI panel, 48 h
SMILES,GI50 [µM],TGI [µM]
Cc1nnc(Nc2ccc(NC(=O)Nc3ccc(Cl)cc3)cc2)c2ccccc12,3.35,9.32
CC(=O)ON1CCCC(P(=O)(OCCSC(=O)C(C)(C)C)OCCSC(=O)C(C)(C)C)C1=O (stereo not given),0.691,> 100
C=CCC1(c2ccc(OC)cc2)C=CC(=O)CC1 (stereo not given),,> 100
COC(=O)[C@]12CC[C@@H](C)[C@H](C)[C@@H]1C1=CC[C@@H]3[C@@]4(C)C[C@@H](O)[C@H](O)[C@@](C)(CO)C4=CC[C@@]3(C)[C@]1(C)CC2,15.7,33.8
COc1ccc(C(=O)Nc2ccc(O)c(=O)cc2)cc1,,91.7
Cc1nc(N)sc1N=Nc1ccccc1Br,,> 84.8
NS(=O)(=O)c1ccc(N=Nc2c(O)c(C(=O)O)cc3ccccc23)cc1,,> 100
Cc1c(N(C)C)ccc2c(=O)c3cccc(CC(=O)O)c3oc12,,> 100
C/C(CC(=O)Nc1ccc(C)c(C)c1)=N\N(c1ccccc1)c1ccccc1,,> 100
COC(=O)/C(=N\NC(N)=S)C(C(=O)OC)C(=O)C(=O)Nc1ccc(C)cc1 (stereo not given),,> 100
CC(NCCC(c1ccccc1)c1ccccc1)c1ccccc1 (stereo not given),1.7,3.37
C/C(N=NC(=S)N1CC2CCC(CC2)C1)=C1\C=CC=CN1O,,> 100
O=C(Nc1ccc(Br)cc1F)c1cc(Cl)ccc1O,1.06,12.8
S=c1[nH]c(=S)c2cc3ccccc3nc2[nH]1,> 100,> 100
CCC[CH2][Sn]([CH2]CCC)([O]C(=O)c1ccc(OC)c(OC)c1OC)[O][Sn]([CH2]CCC)([CH2]CCC)[O]C(=O)c1ccc(OC)c(OC)c1OC,0.299,0.979
CN1CCC(=O)/C(=C/c2ccccc2)C1,,51.7

# System: UACC-257 melanoma
# Assay: inhibition of tumour cell growth, NCI panel, 48 h
SMILES,GI50 [µM],TGI [µM]
Cc1nnc(Nc2ccc(NC(=O)Nc3ccc(Cl)cc3)cc2)c2ccccc12,2.39,5.3
CC(=O)ON1CCCC(P(=O)(OCCSC(=O)C(C)(C)C)OCCSC(=O)C(C)(C)C)C1=O (stereo not given),6.9,81.1
C=CCC1(c2ccc(OC)cc2)C=CC(=O)CC1 (stereo not given),,> 100
COC(=O)[C@]12CC[C@@H](C)[C@H](C)[C@@H]1C1=CC[C@@H]3[C@@]4(C)C[C@@H](O)[C@H](O)[C@@](C)(CO)C4=CC[C@@]3(C)[C@]1(C)CC2,20.1,35.5
COc1ccc(C(=O)Nc2ccc(O)c(=O)cc2)cc1,,> 100
Cc1nc(N)sc1N=Nc1ccccc1Br,,55.8
NS(=O)(=O)c1ccc(N=Nc2c(O)c(C(=O)O)cc3ccccc23)cc1,,> 100
Cc1c(N(C)C)ccc2c(=O)c3cccc(CC(=O)O)c3oc12,,> 100
C/C(CC(=O)Nc1ccc(C)c(C)c1)=N\N(c1ccccc1)c1ccccc1,,> 100
COC(=O)/C(=N\NC(N)=S)C(C(=O)OC)C(=O)C(=O)Nc1ccc(C)cc1 (stereo not given),,> 100
CC(NCCC(c1ccccc1)c1ccccc1)c1ccccc1 (stereo not given),1.65,4.02
C/C(N=NC(=S)N1CC2CCC(CC2)C1)=C1\C=CC=CN1O,,35.2
O=C(Nc1ccc(Br)cc1F)c1cc(Cl)ccc1O,0.731,4.82
S=c1[nH]c(=S)c2cc3ccccc3nc2[nH]1,> 100,> 100
CCC[CH2][Sn]([CH2]CCC)([O]C(=O)c1ccc(OC)c(OC)c1OC)[O][Sn]([CH2]CCC)([CH2]CCC)[O]C(=O)c1ccc(OC)c(OC)c1OC,0.217,0.549
CN1CCC(=O)/C(=C/c2ccccc2)C1,,28.2
